Source: US10617656B2, “Methods of increasing the cytotoxicity of chemotherapeutic agents with multisubstrate inhibitors of histone, protein-Lys, polyamine acetylation, and polyamine metabolism” (Vanderbilt University, priority 2010, dated 2020)

Assays:
H358 lung cancer cells [1] = type: cell-based
Description: (§1) Control cells were left untreated. […] Control cells were left untreated.
Cells were given fresh inhibitor on the first, second, and third days of treatment and viability was measured on the 4th day (i.e. 3 days post start of treatment). […]
(A) Structure of Spd-3a. (B) Western analysis of histone H3K9-acetylation and total histone H3, measured in control, untreated H358 lung cancer cells “C” or in H358 cells incubated 12 hours in the presence of 50 μM Spd-2a or Spd-3a. Each lane represents 60 μg cellular protein. (C) [3H]-thymidine incorporation (counts per minute) into DNA of H358 cells during a 6 hour pulse beginning at 42 hours post-start of treatment. Treatments were as follows (bars 1-6 left to right): (1) control: no treatment; (2) CPT alone: 5 nM 18 hours; (3) 3a alone: 50 μM; (4-6) 3a+CPT: CPT (5 nm, 18 hours)+3a at indicated dose. After 18 hours, CPT was removed and medium was replaced with fresh medium containing Spd-3a at the indicated dose. Each bar represents the average of triplicates. (D) 3-day 96-well viability assay of H358 cells grown in the presence of increasing amounts of Spd-2a or Spd-3a, with or without CPT (5 nM 18 hours). […] Each data point represents the average of three wells.
(§2) Date of exp: Jul. […] Date of exp: Sep.
(§3) Cells were plated in 96-well plates at 2000 cells per well and treated with the indicated doses of spd-3a. Cell viability was measured by the MTS assay 3 days later.
DLD-1 cells or H358 cells were plated in 96-well plates at 2000 cells per well and treated with the indicated doses of (A) spm-3 or (B) spm-2. (C) Cell viability was measured by the MTS assay 3 days later. Similar experiment using GT41 fibroblasts with spm2 or spm 3. Each assay point represents an average of duplicates. […]

[2] = test system: endogenous HATs associated with solubilized chromatin; conditions: Bandyopadhyay et al, 2009; cited from earlier work
γ-H2A.X in H358 cells = assay: γ-H2A.X Western / double strand break repair assay; type: cell-based; conditions: 18 hours post-start; low doses as in FIG. 3
Description: Also shown are controls for no treatment (“c” minus 1a) or treatment with 1a only (“c” plus 1a). Each lane represents 60 μg protein. […] Each lane represents 60 μg protein.
To measure DSB repair, cells were incubated for 1 hour with 10 μM camptothecin to induce DSBs, followed by incubation in the presence or absence of 50 μM 1a. At fixed times, histones were prepared by extraction in 0.2M H2SO4 as described previously and 50 μg extract was analyzed by 12% SDS-PAGE followed Western analysis as described previously, using rabbit polyclonal anti-γ-H2A.X [phosphor ser 139] (Novus Biologicals, Littleton, Colo.) or anti-H3 (Upstate Biotechnology, Inc, Lake Placid, N.Y.). Band intensities were quantitated digitally. To study acetylation of γ-H2A.X, we carried out co-immunoprecipitation analysis using 50 μg extract protein in immunoprecipitation buffer (10 mM sodium phosphate pH 7, 0.15 M NaCl, 0.1% SDS, 1% NP40, 1% sodium deoxycholate, aprotinin, 1 mM PMSF, complete protease inhibitors (Roche) using immobilized anti-acetyl-lysine (Millipore, Temecula, Calif.) in the immunoprecipitation step. The immunoprecipitated material was then analyzed as for Western analysis using anti γ-H2A.X.

MCF7 breast cancer cells = conditions: for effect as single agent on viability: 72 hr assay, DFMO 100 μM, 5FU 2 μM, doxorubicin 100 nM
Description: Viability was measured 3 days after the start of treatment and is expressed as a percentage of control (untreated) cell viability.
Each point is average of triplicates. […]
The present inventors carried out 96-well viability assays as we have previously described (Saadatmandi et al, Cancer Gene Therapy (2002) 9:830-9), in which MCF7 breast cancer cells were plated at 3000 cells per well. After overnight attachment, triplicate wells were treated with increasing doses of inhibitor 1a. Control wells were left untreated. After 3 days, cell viability was measured by the MTS assay, which measures the bioconversion of an uncolored substrate to a colored formazan derivative, and is proportional to cell number.

[3] = test system: MDA MB-435 breast cancer cells; assay: 72 hr viability assay, MDA MB-435; type: cell-based; conditions: 72 hr assay; DFMO 100 μM, 5FU 2 μM, doxorubicin 100 nM
[4] = test system: DU145 prostate cancer cells; assay: Viability assay, DU145; type: cell-based; conditions: 5 nM camptothecin or 10 μM 2a
Description: as §3

BT20 TNBC cells = assay: 3-day viability assay, BT20; type: cell-based; conditions: 5 nM
Source text: as §2
The effect of spd-2a on the BT20 breast cancer cell line derived form a spontaneous TNBC with wild-type BrCa1 was examined. […] Having previously established that spd-2a is a therapy sensitizer, the present inventors then examined the combined effects of spd-2a and camptothecin (the basis for the chemotherapeutic drug, Irinotecan).

H358 lung cancer cells [5] = assay: [3H]-thymidine incorporation (DNA synthesis) assay in H358 cells; type: cell-based; conditions: 5 nM alone (18 or 24 hours)
Description: (A) Structures of 1a, and the acetylated side chain of a lysine residue within the polypeptide chain of a protein targeted by the acetylating enzyme (R1 and R2 are the main chain elements on both sides of the lysyl residue). (B) [^3H]-thymidine incorporation into DNA of H358 cells pulsed for 6 hrs at three different time points after the addition of increasing concentrations of 1a, i.e., at 6-12 hrs (12 hr curve), at 18-24 hours (24 hr curve), or at 42-48 hrs (48 hr curve). Incorporation is represented as a percentage relative to control (untreated) cells. (C) Cell cycle analysis of propidium iodide-stained cells harvested at various times after addition of 50 μM 1a. % of cells in G1, S, and G2 represents the average of two independent profiles. (D) Western analysis of histone H3 lysine 9 acetylation, histone H3 lysine 56 acetylation, histone H3 lysine 9 methylation, and total histone H3, before “c” or at the indicated times after addition of 50 μM 1a. Each lane represents 60 μg cellular protein.
as §1
Cells were either labeled immediately before treatment (starting DNA synthesis rate), or subjected to the indicated treatments and then pulsed on successive days until day 4. DNA synthesis is represented as the percent of starting DNA synthesis rate. Viability was determined for each treatment condition 24 hours post-start of treatment by the trypan blue exclusion assay, with percentages of viable cells indicated to the right of the graph.
H358 cells (2,000/well) in 96-well plates were treated with 1, 10 or 50 μM of spd-1a, spd-2a, spd-3a, spm3, or spm2 for 12 hours. Triplicate wells of cells were pulsed 6 hours with 0.5 μCi [^3H]-thymidine (NEN, Boston Mass.) post-start of drug treatment, and harvested onto filter paper using a Brandel Harvester and subjected to scintillation counting. Untreated cells were pulsed from 0-6 hrs to establish the initial rate of incorporation.
Cells were plated in 96-well plates (2000 cells per well to insure conditions for exponential growth for untreated cells over the time course of the experiment) and exposed to the following treatments: 1a (50 μM); camptothecin (Sigma, St Louis, Mo. 5 nM, 18 hours); cisplatin (Platinol, obtained through local pharmacies, 2 μM, 1 hour 15 minutes), 5-fluorouracil (5FU, Adrucil™, obtained through local pharmacies, 2 μM, 1 hour 15 minutes), Taxotere (provided by the late Dr. Pierre Potier, 5 nM, 18 hours). UVC treatment (40 J/m^2) using a Stratalinker™, Stratagene, La Jolla, Calif.) was carried using medium lacking phenol red. At 0-6 hr, 18-24 hr (day 1), 42-48 hr […], 66-72 hr (day 3), and 90-96 hr (day 4) post-start of treatment, triplicate wells were incubated with 0.5 μCi [^3H]-thymidine (NEN, Boston Mass.), harvested onto filter paper, and subjected to scintillation counting. Trypan blue exclusion assays for cell membrane integrity were carried out as known in the art.
The present inventors used 96-well viability assays as described in Saadatmandi et al (Cancer Gene Therapy (2002) 9:[…]) to examine the effect of 1a on DNA synthesis in H358 cells, as well as the combined effects of 1a and chemotherapeutic agents. H358 cells were plated in 96-well plates at 3000 cells per well. […]

[6] = test system: GT41F human skin fibroblast cells; assay: [3H]-thymidine incorporation in normal fibroblasts; type: cell-based; conditions: 50 μM 1a alone or 5 nM camptothecin alone
Source text: Cells were either labeled immediately before treatment (starting DNA synthesis rate), or subjected to the indicated treatments and then pulsed on successive days until day 4. DNA synthesis is represented as the percent of starting DNA synthesis rate.
The present inventors used a 96-well viability assays as described in Saadatmandi et al (Cancer Gene Therapy (2002) 9:930-9) to examine the effect of the spermidine-CoA inhibitor disclosed previously on DNA synthesis in normal GT41F human skin fibroblast cells, as well as its combined effect with camptothecin. GT41F cells were plated in 96-well plates at 3000 cells per well. […] Following the 6-hour labeling, cells were harvested and incorporation of [^3H]-thymidine was determined by scintillation counting.

[7] = test system: γ-H2A.X in DU145 prostate cancer cells; assay: γ-H2A.X immunofluorescence in DU145 cells; type: cell-based; conditions: 5 nM camptothecin alone, 8 hours
Source text: The immunofluorescence images on the left and right sides of the middle scheme illustrate this visually. […] Cells were fixed and stained with a rabbit antibody to the histone variant, γ-H2A.X, a marker for DNA double stranded breaks, followed by staining with a fluorescein (FITC)-tagged goat anti rabbit secondary antibody. Nuclei were stained with Hoescht 33345.

CC(C)(COP(=O)(O)OP(=O)(O)OC[C@H]1O[C@@H](n2cnc3c(N)ncnc32)[C@H](O)[C@@H]1OP(=O)(O)O)[C@@H](O)C(=O)NCCC(=O)NCCSCC(=O)NCCCCNCCCN [1b, spermidine [N8]-CoA]
suppression of 3 day cell viability (H358 lung cancer cells [1]): 60-70% | inhibitory activity against endogenous HAT activity, isomers compared [2]: comparable inhibitory activity

O=c1[nH]cc(F)c(=O)[nH]1 [5FU, 5-Fluorouracil]
γ-H2A.X level, single agent (γ-H2A.X in H358 cells): weakly detectable | effect as single agent on viability (MCF7 breast cancer cells): minimal effects | effect as single agent on viability [3]: minimal effects

CC[C@@]1(O)C(=O)OCc2c1cc1n(c2=O)Cc2cc3ccccc3nc2-1 [camptothecin]
effect of the dose on cell viability, single agent [4]: minimal effects on cell viability | effect of camptothecin by itself (BT20 TNBC cells): no effect | effect of camptothecin alone on [3H]-thymidine incorporation (H358 lung cancer cells [5]): no detectable effect | effect on incorporation of [3H]-thymidine, single agent [6]: virtually no effect | γ-H2A.X level, single agent (γ-H2A.X in H358 cells): weakly detectable | 2-day cell viability relative to untreated cells (MCF7 breast cancer cells; 5 nM camptothecin alone, 18 hour): no effect | DNA damage (γ-H2A.X staining) [7]: minimal damage

N.N.[Cl][Pt][Cl] [cisplatin, cis-diamminedichloro-platinium]
γ-H2A.X level, single agent (γ-H2A.X in H358 cells): weakly detectable

COc1cccc2c1C(=O)c1c(O)c3c(c(O)c1C2=O)C[C@@](O)(C(=O)CO)C[C@@H]3O[C@H]1C[C@H](N)[C@H](O)[C@H](C)O1 [doxorubicin]
effect as single agent on viability (MCF7 breast cancer cells): minimal effects | effect as single agent on viability [3]: minimal effects
